Measurements taken from PubChem BioAssay (NCI).
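Results reflect a 48-hour exposure of cells in 96-well plates to compound at five concentrations. GI50 marks 50% less growth. TGI denotes the concentration required for complete inhibition of growth.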

What was measured:
Assay in all cases: inhibition of tumour cell growth, NCI panel, 48 h
786-0 renal = system: 786-0 renal
A498 renal = system: A498 renal
A549 NSCLC = system: A549 NSCLC
ACHN renal = system: ACHN renal
BT-549 breast = system: BT-549 breast
CAKI-1 renal = system: CAKI-1 renal
CCRF-CEM leukemia = system: CCRF-CEM leukemia
COLO 205 colon = system: COLO 205 colon
DU-145 prostate = system: DU-145 prostate
EKVX NSCLC = system: EKVX NSCLC
HCC-2998 colon = system: HCC-2998 colon
HCT-116 colon = system: HCT-116 colon
HCT-15 colon = system: HCT-15 colon
HL-60(TB) leukemia = system: HL-60(TB) leukemia
HOP-62 NSCLC = system: HOP-62 NSCLC
HOP-92 NSCLC = system: HOP-92 NSCLC
HS 578T breast = system: HS 578T breast
HT29 colon = system: HT29 colon
IGROV1 ovarian = system: IGROV1 ovarian
K-562 leukemia = system: K-562 leukemia
KM12 colon = system: KM12 colon
LOX IMVI melanoma = system: LOX IMVI melanoma
MALME-3M melanoma = system: MALME-3M melanoma
MCF7 breast = system: MCF7 breast
MDA-MB-231 breast = system: MDA-MB-231 breast
MOLT-4 leukemia = system: MOLT-4 leukemia
NCI-H226 lung = system: NCI-H226 lung
NCI-H23 lung = system: NCI-H23 lung
NCI-H460 lung = system: NCI-H460 lung
NCI-H522 lung = system: NCI-H522 lung
NCI/ADR-RES ovarian = system: NCI/ADR-RES ovarian
OVCAR-3 ovarian = system: OVCAR-3 ovarian
OVCAR-4 ovarian = system: OVCAR-4 ovarian
OVCAR-5 ovarian = system: OVCAR-5 ovarian
OVCAR-8 ovarian = system: OVCAR-8 ovarian
PC-3 prostate = system: PC-3 prostate
RPMI-8226 leukemia = system: RPMI-8226 leukemia
RXF 393 renal = system: RXF 393 renal
SF-268 CNS = system: SF-268 CNS
SF-295 CNS = system: SF-295 CNS
SF-539 CNS = system: SF-539 CNS
SK-MEL-2 melanoma = system: SK-MEL-2 melanoma
SK-MEL-5 melanoma = system: SK-MEL-5 melanoma
SK-OV-3 ovarian = system: SK-OV-3 ovarian
SN12C renal = system: SN12C renal
SNB-19 CNS = system: SNB-19 CNS
SNB-75 CNS = system: SNB-75 CNS
SR leukemia = system: SR leukemia
SW-620 colon = system: SW-620 colon
TK-10 renal = system: TK-10 renal
U251 CNS = system: U251 CNS
UACC-257 melanoma = system: UACC-257 melanoma
UACC-62 melanoma = system: UACC-62 melanoma
UO-31 renal = system: UO-31 renal
M14 melanoma = system: M14 melanoma
MDA-MB-435 = system: MDA-MB-435
SK-MEL-28 melanoma = system: SK-MEL-28 melanoma
T-47D breast = system: T-47D breast

CCC(C)(C)[C@H](NC(=O)[C@H]1CCCCN1C)C(=O)N(C)[C@H](C[C@@H](OC(C)=O)c1nc(C(=O)N[C@@H](Cc2ccccc2)C[C@H](C)C(=O)O)cs1)C(C)C
GI50 (786-0 renal): < 1.67 nM | TGI (786-0 renal): > 16.7 µM | GI50 (A498 renal): < 1.67 nM | TGI (A498 renal): 11.3 nM | GI50 (A549 NSCLC): < 1.67 nM | TGI (A549 NSCLC): > 16.7 µM | GI50 (ACHN renal): < 1.67 nM | TGI (ACHN renal): > 16.7 µM | GI50 (BT-549 breast): < 1.67 nM | TGI (BT-549 breast): 13.6 nM | GI50 (CAKI-1 renal): < 1.67 nM | TGI (CAKI-1 renal): > 16.7 µM | GI50 (CCRF-CEM leukemia): < 1.67 nM | TGI (CCRF-CEM leukemia): > 16.7 µM | GI50 (COLO 205 colon): < 1.67 nM | TGI (COLO 205 colon): 0.00277 µM | GI50 (DU-145 prostate): < 1.67 nM | GI50 (EKVX NSCLC): < 1.67 nM | TGI (EKVX NSCLC): > 16.7 µM | GI50 (HCC-2998 colon): < 1.67 nM | TGI (HCC-2998 colon): > 16.7 µM | GI50 (HCT-116 colon): < 1.67 nM | TGI (HCT-116 colon): > 16.7 µM | GI50 (HCT-15 colon): < 1.67 nM | TGI (HCT-15 colon): > 16.7 µM | GI50 (HL-60(TB) leukemia): < 1.67 nM | TGI (HL-60(TB) leukemia): < 0.00167 µM | GI50 (HOP-62 NSCLC): < 1.67 nM | TGI (HOP-62 NSCLC): > 16.7 µM | GI50 (HOP-92 NSCLC): 6.61 nM | TGI (HOP-92 NSCLC): > 16.7 µM | GI50 (HS 578T breast): < 1.67 nM | TGI (HS 578T breast): > 11.5 µM | GI50 (HT29 colon): < 1.67 nM | TGI (HT29 colon): > 16.7 µM | GI50 (IGROV1 ovarian): < 1.67 nM | TGI (IGROV1 ovarian): > 16.7 µM | GI50 (K-562 leukemia): < 1.67 nM | TGI (K-562 leukemia): > 16.7 µM | GI50 (KM12 colon): < 1.67 nM | TGI (KM12 colon): > 16.7 µM | GI50 (LOX IMVI melanoma): < 1.67 nM | TGI (LOX IMVI melanoma): > 16.7 µM | GI50 (MALME-3M melanoma): < 1.67 nM | TGI (MALME-3M melanoma): > 16.7 µM | GI50 (MCF7 breast): < 1.67 nM | TGI (MCF7 breast): > 16.7 µM | GI50 (MDA-MB-231 breast): < 1.67 nM | GI50 (MOLT-4 leukemia): < 1.67 nM | TGI (MOLT-4 leukemia): > 16.7 µM | GI50 (NCI-H226 lung): < 1.67 nM | TGI (NCI-H226 lung): 7.43 nM | GI50 (NCI-H23 lung): < 1.67 nM | TGI (NCI-H23 lung): > 16.7 µM | GI50 (NCI-H460 lung): < 1.67 nM | TGI (NCI-H460 lung): > 16.7 µM | GI50 (NCI-H522 lung): < 1.67 nM | TGI (NCI-H522 lung): 5.83 nM | GI50 (NCI/ADR-RES ovarian): 3.42 nM | TGI (NCI/ADR-RES ovarian): > 16.7 µM | GI50 (OVCAR-3 ovarian): < 1.67 nM | TGI (OVCAR-3 ovarian): 4.72 nM | GI50 (OVCAR-4 ovarian): 7.98 nM | TGI (OVCAR-4 ovarian): > 16.7 µM | GI50 (OVCAR-5 ovarian): < 1.67 nM | TGI (OVCAR-5 ovarian): > 16.7 µM | GI50 (OVCAR-8 ovarian): < 1.67 nM | TGI (OVCAR-8 ovarian): > 16.7 µM | GI50 (PC-3 prostate): < 1.67 nM | TGI (PC-3 prostate): > 16.7 µM | GI50 (RPMI-8226 leukemia): < 1.67 nM | TGI (RPMI-8226 leukemia): > 16.7 µM | GI50 (RXF 393 renal): < 1.67 nM | GI50 (SF-268 CNS): 2.17 nM | TGI (SF-268 CNS): > 16.7 µM | GI50 (SF-295 CNS): < 1.67 nM | GI50 (SF-539 CNS): < 1.67 nM | TGI (SF-539 CNS): < 0.00167 µM | GI50 (SK-MEL-2 melanoma): < 1.67 nM | TGI (SK-MEL-2 melanoma): > 16.7 µM | GI50 (SK-MEL-5 melanoma): < 1.67 nM | TGI (SK-MEL-5 melanoma): 0.00294 µM | GI50 (SK-OV-3 ovarian): < 1.67 nM | TGI (SK-OV-3 ovarian): > 16.7 µM | GI50 (SN12C renal): < 1.67 nM | TGI (SN12C renal): > 16.7 µM | GI50 (SNB-19 CNS): < 1.67 nM | TGI (SNB-19 CNS): > 16.7 µM | GI50 (SNB-75 CNS): < 1.67 nM | TGI (SNB-75 CNS): > 16.7 µM | GI50 (SR leukemia): < 1.67 nM | TGI (SR leukemia): > 16.7 µM | GI50 (SW-620 colon): < 1.67 nM | TGI (SW-620 colon): > 16.7 µM | GI50 (TK-10 renal): 253 nM | TGI (TK-10 renal): > 16.7 µM | GI50 (U251 CNS): < 1.67 nM | TGI (U251 CNS): > 16.7 µM | GI50 (UACC-257 melanoma): > 16.7 µM | TGI (UACC-257 melanoma): > 16.7 µM | GI50 (UACC-62 melanoma): < 1.67 nM | TGI (UACC-62 melanoma): > 16.7 µM | GI50 (UO-31 renal): 8.73 nM | TGI (UO-31 renal): > 16.7 µM

COc1ccc(-c2coc3cc(O)cc(O)c3c2=O)cc1
TGI (786-0 renal): > 10 µM | TGI (A549 NSCLC): > 10 µM | TGI (ACHN renal): > 10 µM | TGI (CAKI-1 renal): > 10 µM | TGI (CCRF-CEM leukemia): > 10 µM | TGI (COLO 205 colon): > 10 µM | TGI (HL-60(TB) leukemia): > 10 µM | TGI (HOP-62 NSCLC): > 10 µM | TGI (IGROV1 ovarian): > 10 µM | TGI (K-562 leukemia): > 10 µM | TGI (M14 melanoma): > 10 µM | TGI (MALME-3M melanoma): > 10 µM | TGI (MCF7 breast): > 10 µM | TGI (MDA-MB-435): > 10 µM | TGI (MOLT-4 leukemia): > 10 µM | TGI (NCI-H23 lung): > 10 µM | TGI (NCI-H460 lung): > 10 µM | TGI (NCI/ADR-RES ovarian): > 10 µM | TGI (OVCAR-4 ovarian): > 10 µM | TGI (OVCAR-5 ovarian): > 10 µM | TGI (RPMI-8226 leukemia): > 10 µM | TGI (RXF 393 renal): > 10 µM | TGI (SF-268 CNS): > 10 µM | TGI (SK-MEL-2 melanoma): > 10 µM | TGI (SK-MEL-28 melanoma): > 10 µM | TGI (SK-MEL-5 melanoma): > 10 µM | TGI (SK-OV-3 ovarian): > 10 µM | TGI (SNB-75 CNS): > 10 µM | TGI (SR leukemia): > 10 µM | TGI (SW-620 colon): > 10 µM | TGI (T-47D breast): > 10 µM | TGI (U251 CNS): > 10 µM | TGI (UACC-62 melanoma): > 10 µM

CN1c2ccccc2C(=O)NC12CCNCC2
TGI (786-0 renal): > 100 µM | TGI (A498 renal): > 100000 nM | TGI (A549 NSCLC): > 100 µM | TGI (ACHN renal): > 100 µM | TGI (CCRF-CEM leukemia): > 100 µM | TGI (COLO 205 colon): > 100 µM | TGI (DU-145 prostate): > 100 µM | TGI (EKVX NSCLC): > 100 µM | TGI (HCC-2998 colon): > 100 µM | TGI (HCT-116 colon): > 100 µM | TGI (HL-60(TB) leukemia): > 100 µM | TGI (HOP-62 NSCLC): > 100 µM | TGI (HOP-92 NSCLC): > 100 µM | TGI (HS 578T breast): 40 µM | TGI (HT29 colon): > 100 µM | TGI (IGROV1 ovarian): > 100 µM | TGI (K-562 leukemia): > 100 µM | TGI (KM12 colon): > 100 µM | TGI (LOX IMVI melanoma): > 100 µM | TGI (M14 melanoma): > 100 µM | TGI (MALME-3M melanoma): > 100 µM | TGI (MCF7 breast): > 100 µM | TGI (MDA-MB-435): > 100 µM | TGI (MOLT-4 leukemia): > 100 µM | TGI (NCI-H226 lung): > 100000 nM | TGI (NCI-H23 lung): > 100 µM | TGI (NCI-H460 lung): > 100 µM | TGI (NCI/ADR-RES ovarian): > 100 µM | TGI (OVCAR-4 ovarian): > 100 µM | TGI (OVCAR-5 ovarian): > 100 µM | TGI (OVCAR-8 ovarian): > 100 µM | TGI (RPMI-8226 leukemia): > 100 µM | TGI (RXF 393 renal): > 100 µM | TGI (SF-268 CNS): > 100 µM | TGI (SF-295 CNS): > 100 µM | TGI (SF-539 CNS): > 100 µM | TGI (SK-MEL-28 melanoma): > 100 µM | TGI (SK-MEL-5 melanoma): > 100 µM | TGI (SK-OV-3 ovarian): > 100 µM | TGI (SNB-19 CNS): > 100 µM | TGI (SNB-75 CNS): > 100 µM | TGI (SR leukemia): > 100 µM | TGI (SW-620 colon): > 100 µM | TGI (T-47D breast): > 100 µM | TGI (TK-10 renal): > 100 µM | TGI (U251 CNS): > 100 µM | TGI (UACC-257 melanoma): > 100 µM | TGI (UACC-62 melanoma): > 100 µM | TGI (UO-31 renal): > 100 µM
